Here are results for 26 compounds from patent US10392347B2, “2,4-dihydroxy-nicotinamides as APJ agonists” (BRISTOL-MYERS SQUIBB COMPANY, priority 2015, dated 2019).

One assay addresses T1, human APJ receptor (Homo sapiens, UniProt P35414).
T1 construct: expressed in transfected cells
T1 sequence (P35414 1-380): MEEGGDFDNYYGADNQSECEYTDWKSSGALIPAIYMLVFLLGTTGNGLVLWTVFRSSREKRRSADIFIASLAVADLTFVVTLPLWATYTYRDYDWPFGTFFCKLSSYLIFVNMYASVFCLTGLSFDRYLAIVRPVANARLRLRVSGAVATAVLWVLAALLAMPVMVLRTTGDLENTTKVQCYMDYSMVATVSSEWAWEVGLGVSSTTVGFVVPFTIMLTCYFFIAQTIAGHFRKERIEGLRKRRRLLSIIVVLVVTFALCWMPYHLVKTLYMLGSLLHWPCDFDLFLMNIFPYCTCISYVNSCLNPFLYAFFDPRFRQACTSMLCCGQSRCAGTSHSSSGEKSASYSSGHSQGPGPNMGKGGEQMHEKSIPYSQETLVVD
Nature of the assay: Intracellular cAMP accumulation assay (APJ hcAMP, HTRF). The settings on record: HEK293 cells stably expressing human APJ; read-out: Human cAMP Potency range. Type of assay: cell-based. As to the method: Intracellular cAMP Accumulation Assay
HEK293 cells stably expressing human APJ receptor were used to assess the activity of compounds. Cultured cells were detached and resuspended in the cAMP Homogeneous Time-Resolved Fluorescence (HTRF) assay buffer (Cisbio cat; #62AM4PEJ). […] Serial dilutions of a compound together with assay buffer containing […] and 2 μM forskolin were added to each well containing 5,000 cells and incubated for 30 minutes at room temperature. Subsequently, cAMP D2 reagent was added in the lysis buffer followed by the EuK antibody (Cisbio; cat #62AM4PEJ) and incubated for 60 min. The fluorescence emission ratio was measured using fluorometer. The intracellular cAMP concentrations (compound-stimulated inhibition of forskolin-mediated cAMP production) were calculated by extrapolation from a standard curve using known cAMP concentrations. The EC50 values were obtained by fitting the data to a sigmoidal concentration-response curve with variable slope.
The EC50 value of each compound is presented at the end of the example description.
The biological activity of the exemplified compounds of this invention determined by the assay described above is shown at the end of each example.
Consider `CCNCc1nc(O)c(C(=O)N2CCC(c3cccc(F)c3)C2)c(O)c1-c1c(OC)cccc1OC` (single isomer, unassigned) [Example 149, 5-(2,6-dimethoxyphenyl)-6-[(ethylamino)methyl]-3-[3-(3-fluorophenyl)pyrrolidine-1-carbonyl]pyridine-2,4-diol], for which the EC50 fell in the range of 100 to 300 nM.

The assay is the same for the next values; noted with them: Table 1; HEK293 cells stably expressing human APJ, forskolin-stimulated cAMP; read-out: APJ cAMP EC50.
Take `CCCCc1nc(O)c(C(=O)N2CCN(c3nc(-c4ccccc4)ns3)CC2)c(O)c1-c1c(OC)cccc1OC` [Example 60, 6-butyl-5-(2,6-dimethoxyphenyl)-3-[4-(3-phenyl-1,2,4-thiadiazol-5-yl)piperazine-1-carbonyl]pyridine-2,4-diol]: the EC50 lay in the range of 10 to 100 nM.

As to `CCCCc1nc(O)c(C(=O)N(C)CCc2ccccn2)c(O)c1-c1c(OC)cccc1OC` [Example 15, 6-butyl-5-(2,6-dimethoxyphenyl)-2,4-dihydroxy-N-methyl-N-[2-(pyridin-2-yl)ethyl]pyridine-3-carboxamide], the EC50 lay in the range of 0.01 to 10 nM.

As for `CCCCc1nc(O)c(C(=O)N2CCN(c3nc4ccccc4s3)CC2)c(O)c1-c1c(OC)cccc1OC` [Example 54, 3-[4-(1,3-benzothiazol-2-yl)piperazine-1-carbonyl]-6-butyl-5-(2,6-dimethoxyphenyl)pyridine-2,4-diol], the EC50 lay within 10 to 100 nM.

As for `CCOCc1nc(O)c(C(=O)N2CC[C@@H](c3ccccc3)C2)c(O)c1-c1c(OC)cccc1OC` [Example 25, 5-(2,6-dimethoxyphenyl)-6-(ethoxymethyl)-3-[(3S)-3-phenylpyrrolidine-1-carbonyl]pyridine-2,4-diol], the EC50 was 10 to 100 nM.

As to `CCCCc1nc(O)c(C(=O)N2CCN(c3cccnn3)CC2)c(O)c1-c1c(OC)cccc1OC` [Example 21, 6-butyl-5-(2,6-dimethoxyphenyl)-3-[4-(pyridazin-3-yl)piperazine-1-carbonyl]pyridine-2,4-diol], the EC50 was in the range of 100 to 300 nM.

As for `CCCCc1nc(O)c(C(=O)N2CC(c3cccc(Cl)c3)C2)c(O)c1-c1c(OC)cccc1OC` [Example 34, 6-butyl-3-[3-(3-chlorophenyl)azetidine-1-carbonyl]-5-(2,6-dimethoxyphenyl)pyridine-2,4-diol], the EC50 fell in the range of 0.01 to 10 nM.

Turning to `CCCCc1nc(O)c(C(=O)N2CCC3(CC2)OC(=O)Nc2ccccc23)c(O)c1-c1c(OC)cccc1OC` [Example 50, 1′-[6-butyl-5-(2,6-dimethoxyphenyl)-2,4-dihydroxypyridine-3-carbonyl]-1,2-dihydrospiro[3,1-benzoxazine-4,4′-piperidine]-2-one], the EC50 fell in the range of 10 to 100 nM.

For the compound `CCCCc1nc(O)c(C(=O)N2CCC(N3CCCC3)CC2)c(O)c1-c1c(OC)cccc1OC` [Example 61, 6-butyl-5-(2,6-dimethoxyphenyl)-3-[4-(pyrrolidin-1-yl)piperidine-1-carbonyl]pyridine-2,4-diol], the EC50 fell in the range of 10 to 100 nM.

`CCOCc1nc(O)c(C(=O)N2CC[C@H](c3ccccc3)C2)c(O)c1-c1c(OC)cccc1OC` [Example 26, 5-(2,6-dimethoxyphenyl)-6-(ethoxymethyl)-3-[(3R)-3-phenylpyrrolidine-1-carbonyl]pyridine-2,4-diol]: the EC50 lay in the range of 10 to 100 nM.

The assay is the same for the next values; noted with them: Table 3; HEK293 cells stably expressing human APJ, forskolin-stimulated cAMP; read-out: APJ cAMP EC50.
In the case of `CCCCc1nc(O)c(C(=O)N2CCC(c3ncccc3F)C2)c(O)c1-c1c(OC)cccc1OC` (centres unmarked) [Example 81, 6-butyl-5-(2,6-dimethoxyphenyl)-3-[3-(3-fluoropyridin-2-yl)pyrrolidine-1-carbonyl]pyridine-2,4-diol], the EC50 was 0.01 to 10 nM.

For `CCOCc1nc(O)c(C(=O)N2CCC(c3ccc(Cl)cn3)C2)c(O)c1-c1c(OC)cccc1OC` (centres unmarked) [Example 77, 3-[3-(5-chloropyridin-2-yl)pyrrolidine-1-carbonyl]-5-(2,6-dimethoxyphenyl)-6-(ethoxymethyl)pyridine-2,4-diol], the EC50 was in the range of 0.01 to 10 nM.

On to `CCCCc1nc(O)c(C(=O)N2CCC(c3ccc(F)cn3)C2)c(O)c1-c1c(OC)cccc1OC` (centres unmarked) [Example 80, 6-butyl-5-(2,6-dimethoxyphenyl)-3-[3-(5-fluoropyridin-2-yl)pyrrolidine-1-carbonyl]pyridine-2,4-diol], for which the EC50 was 0.01 to 10 nM.

The assay is the same for the next values; noted with them: Table 4; HEK293 cells stably expressing human APJ, forskolin-stimulated cAMP; read-out: Human cAMP EC50.
Turning to `CCCCc1nc(O)c(C(=O)N2CCN(C(=O)c3ccc(Cl)cn3)CC2)c(O)c1-c1c(OC)cccc1OC` [Example 105, 6-butyl-3-[4-(5-chloropyridine-2-carbonyl)piperazine-1-carbonyl]-5-(2,6-dimethoxyphenyl)pyridine-2,4-diol], the EC50 is 0.01 to 10 nM.

For `CCCCc1nc(O)c(C(=O)N2CCN(CC3CCCCC3)CC2)c(O)c1-c1c(OC)cccc1OC` [Example 109, 6-butyl-3-[4-(cyclohexylmethyl)piperazine-1-carbonyl]-5-(2,6-dimethoxyphenyl)pyridine-2,4-diol], the EC50 lay within 10 to 100 nM.

As to `CCCCc1nc(O)c(C(=O)N2CCN(Cc3ccccn3)CC2)c(O)c1-c1c(OC)cccc1OC` [Example 101, 6-butyl-5-(2,6-dimethoxyphenyl)-3-[4-(pyridin-2-ylmethyl)piperazine-1-carbonyl]pyridine-2,4-diol], the EC50 lay within 0.01 to 10 nM.

Take `CCCCc1nc(O)c(C(=O)N2CCN(Cc3cccc(Cl)c3Cl)CC2)c(O)c1-c1c(OC)cccc1OC` [Example 94, 6-butyl-3-{4-[(2,3-dichlorophenyl)methyl]piperazine-1-carbonyl}-5-(2,6-dimethoxyphenyl)pyridine-2,4-diol]: the EC50 lay within 0.01 to 10 nM.

For `CCCCc1nc(O)c(C(=O)N2CCC(Oc3ccc(Cl)cn3)CC2)c(O)c1-c1c(OC)cccc1OC` [Example 100, 6-butyl-3-{4-[(5-chloropyridin-2-yl)oxy]piperidine-1-carbonyl}-5-(2,6-dimethoxyphenyl)pyridine-2,4-diol], the EC50 fell in the range of 0.01 to 10 nM.

Regarding `CCCCc1nc(O)c(C(=O)N(CCC)CCc2ccccc2F)c(O)c1-c1c(OC)cccc1OC` [Example 117, 6-butyl-5-(2,6-dimethoxyphenyl)-N-[2-(2-fluorophenyl)ethyl]-2,4-dihydroxy-N-propylpyridine-3-carboxamide], the EC50 fell in the range of 100 to 300 nM.

Consider `CCCCc1nc(O)c(C(=O)N2CCN(C(=O)c3cccc(F)c3F)CC2)c(O)c1-c1c(OC)cccc1OC` [Example 119, 6-butyl-3-[4-(2,3-difluorobenzoyl)piperazine-1-carbonyl]-5-(2,6-dimethoxyphenyl)pyridine-2,4-diol], for which the EC50 was in the range of 0.01 to 10 nM.

Regarding `CCOCc1nc(O)c(C(=O)N2CCN(Cc3cccc(F)c3)CC2)c(O)c1-c1c(OC)cccc1OC` [Example 90, 5-(2,6-dimethoxyphenyl)-6-(ethoxymethyl)-3-{4-[(3-fluorophenyl)methyl]piperazine-1-carbonyl}pyridine-2,4-diol], the EC50 is 10 to 100 nM.

As for `CCCCc1nc(O)c(C(=O)N2CC(OCc3cccc(F)c3F)C2)c(O)c1-c1c(OC)cccc1OC` [Example 116, 6-butyl-3-{3-[(2,3-difluorophenyl)methoxy]azetidine-1-carbonyl}-5-(2,6-dimethoxyphenyl)pyridine-2,4-diol], the EC50 was 0.01 to 10 nM.

The assay is the same for the next values; noted with them: Table 5; HEK293 cells stably expressing human APJ, forskolin-stimulated cAMP; read-out: Human cAMP EC50.
On to `COc1cccc(-c2c(-c3csc(C)n3)nc(O)c(C(=O)N3CCC(c4ncc(F)cc4F)C3)c2O)c1` (centres unmarked) [Example 128, 3-[3-(3,5-difluoropyridin-2-yl)pyrrolidine-1-carbonyl]-5-(3-methoxyphenyl)-6-(2-methyl-1,3-thiazol-4-yl)pyridine-2,4-diol], for which the EC50 is 10 to 100 nM.

The same assay, now with this note: Table 6; HEK293 cells stably expressing human APJ, forskolin-stimulated cAMP; read-out: Human cAMP EC50.
For `CCOCc1nc(O)c(C(=O)N2CCC(c3c(F)cccc3F)C2)c(O)c1-c1c(OC)cccc1OC` (centres unmarked) [Example 134, 3-[3-(2,6-difluorophenyl)pyrrolidine-1-carbonyl]-5-(2,6-dimethoxyphenyl)-6-(ethoxymethyl)-4-hydroxy-1,2-dihydropyridin-2-one], the EC50 lay within 0.01 to 10 nM.

The assay is the same for the next values; noted with them: Table 7; HEK293 cells stably expressing human APJ, forskolin-stimulated cAMP; read-out: Human cAMP EC50.
`CCCCc1nc(O)c(C(=O)N2CCC(c3ncc(F)cc3F)C2)c(O)c1-c1cccc(OC)c1` (centres unmarked) [Example 142, 6-butyl-3-[3-(3,5-difluoropyridin-2-yl)pyrrolidine-1-carbonyl]-5-(3-methoxyphenyl)pyridine-2,4-diol]: the EC50 was 0.01 to 10 nM.

Staying with this assay, now noted: Table 8; HEK293 cells stably expressing human APJ, forskolin-stimulated cAMP; read-out: Human cAMP EC50.
`CCNCc1nc(O)c(C(=O)N2CCC(c3ccccc3F)C2)c(O)c1-c1c(OC)cccc1OC` (centres unmarked) [Example 150, 5-(2,6-dimethoxyphenyl)-6-[(ethylamino)methyl]-3-[3-(2-fluorophenyl)pyrrolidine-1-carbonyl]pyridine-2,4-diol]: the EC50 lay within 10 to 100 nM.
